This test has as its target T1, p101/p110γ protein (PI3Kγ) (Homo sapiens, UniProt P48736).
T1 construct: HA; made in house; host or cells: Spodoptera frugiperda (Sf9) cells, baculovirus coinfection
Nature of the test: PI3Kγ In Vitro Kinase Assay. In kind it is biochemical. To be noted: purified recombinant p101/p110γ with G protein β1/γ2 subunits; 20 μM ATP, 25 μM PIP2; 20 minutes at room temperature; radioactive PIP3 readout. In outline: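 Baculovirus/Sf9-expressed p101/p110γ (~2.7 nM) with G protein β1/γ2, 20 μM ATP plus [γ-32P]ATP, PIP2/PE micelles (25 μM PIP2, 300 μM PE, 10 mM MgCl2) in HEPES buffer. Reaction 20 min at room temperature, stopped with H3PO4; radiolabelled PIP3 counted on filters to derive IC50 (μM).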
T1 sequence (P48736 whole entry, species assumed): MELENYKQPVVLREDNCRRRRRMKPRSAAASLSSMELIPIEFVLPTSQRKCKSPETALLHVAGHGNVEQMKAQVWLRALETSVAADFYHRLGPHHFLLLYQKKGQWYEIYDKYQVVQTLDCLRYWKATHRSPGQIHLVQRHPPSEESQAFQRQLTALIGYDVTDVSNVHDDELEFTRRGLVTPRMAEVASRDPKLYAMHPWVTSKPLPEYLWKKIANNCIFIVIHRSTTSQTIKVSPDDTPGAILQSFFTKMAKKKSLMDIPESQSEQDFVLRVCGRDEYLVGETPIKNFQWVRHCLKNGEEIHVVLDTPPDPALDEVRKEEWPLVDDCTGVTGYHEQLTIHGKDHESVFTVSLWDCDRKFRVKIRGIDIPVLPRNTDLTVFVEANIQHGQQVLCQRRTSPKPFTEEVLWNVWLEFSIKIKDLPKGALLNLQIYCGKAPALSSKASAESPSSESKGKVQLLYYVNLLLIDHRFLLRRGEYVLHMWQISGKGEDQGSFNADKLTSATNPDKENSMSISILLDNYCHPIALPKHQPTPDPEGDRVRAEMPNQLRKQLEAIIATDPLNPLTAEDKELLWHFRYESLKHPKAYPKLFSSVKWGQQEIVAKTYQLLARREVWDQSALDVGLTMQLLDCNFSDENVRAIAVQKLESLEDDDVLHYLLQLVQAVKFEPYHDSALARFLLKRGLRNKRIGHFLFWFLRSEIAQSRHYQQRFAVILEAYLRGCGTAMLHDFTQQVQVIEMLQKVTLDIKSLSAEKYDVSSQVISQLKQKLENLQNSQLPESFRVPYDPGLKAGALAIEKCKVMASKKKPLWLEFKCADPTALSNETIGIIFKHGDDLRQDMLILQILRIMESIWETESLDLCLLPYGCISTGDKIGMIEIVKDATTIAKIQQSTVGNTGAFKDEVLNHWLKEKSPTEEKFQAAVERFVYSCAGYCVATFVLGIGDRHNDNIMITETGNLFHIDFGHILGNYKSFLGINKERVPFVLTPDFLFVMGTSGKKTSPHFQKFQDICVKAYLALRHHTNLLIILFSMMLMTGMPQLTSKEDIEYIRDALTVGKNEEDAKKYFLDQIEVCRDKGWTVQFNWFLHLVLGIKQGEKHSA
T1 sequence (Q8WYR1 whole entry partner, species assumed): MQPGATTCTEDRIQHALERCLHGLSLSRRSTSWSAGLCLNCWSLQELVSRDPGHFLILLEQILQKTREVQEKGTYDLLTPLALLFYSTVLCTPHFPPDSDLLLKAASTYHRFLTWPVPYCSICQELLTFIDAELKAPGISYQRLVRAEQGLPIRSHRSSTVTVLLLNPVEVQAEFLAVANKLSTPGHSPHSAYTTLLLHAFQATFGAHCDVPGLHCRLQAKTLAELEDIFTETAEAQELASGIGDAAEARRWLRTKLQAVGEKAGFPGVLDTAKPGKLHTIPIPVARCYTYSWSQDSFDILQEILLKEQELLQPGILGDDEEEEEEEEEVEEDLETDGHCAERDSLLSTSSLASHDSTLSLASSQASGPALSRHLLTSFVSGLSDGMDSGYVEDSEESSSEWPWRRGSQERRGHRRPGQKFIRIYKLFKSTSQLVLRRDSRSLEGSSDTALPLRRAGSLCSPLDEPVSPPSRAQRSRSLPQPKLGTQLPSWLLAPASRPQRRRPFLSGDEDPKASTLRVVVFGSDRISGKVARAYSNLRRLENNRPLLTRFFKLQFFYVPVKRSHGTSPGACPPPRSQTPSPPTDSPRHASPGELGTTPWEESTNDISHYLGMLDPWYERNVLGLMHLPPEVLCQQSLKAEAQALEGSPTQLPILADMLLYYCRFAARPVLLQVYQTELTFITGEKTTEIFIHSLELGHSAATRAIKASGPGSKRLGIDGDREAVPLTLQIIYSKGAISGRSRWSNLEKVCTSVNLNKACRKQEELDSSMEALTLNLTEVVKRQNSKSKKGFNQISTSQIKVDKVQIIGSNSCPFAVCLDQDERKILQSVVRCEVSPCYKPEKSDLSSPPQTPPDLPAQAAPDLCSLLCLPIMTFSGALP
For orientation: IC50 means the concentration at which inhibition is half-maximal. Turning to “5-[9-(2-Benzyloxy-acetyl)-6,7,8,9-tetrahydro-5-oxa-9-aza-benzocyclohepten-2-ylmethylene]-2-thioxo-thiazolidin-4-one [Example 119]”, the IC50 stood at 1650 nM.

As to `O=C1NC(=S)SC1=Cc1ccc2c(c1)NCCO2` [Example 10, 5-(3,4-dihydro-2H-benzo[1,4]oxazine-6-ylmethylene)-2-thioxo-thiazolidin-4-one], the 50% inhibitory concentration (IC50) worked out at 160 nM. For `Cc1cc(C)cc(NC(=O)N2CCOc3ccc(C=C4SC(=S)NC4=O)cc32)c1` [Example 79, 6-(4-Oxo-2-thioxo-thiazolidin-5-ylidenemethyl)-2,3-dihydro-benzo[14]oxazine-4-carboxylic acid (3,5-dimethyl-phenyl)-amide], the half-maximal inhibitory concentration (IC50) came to 9 nM. With `O=C1NC(=S)SC1=Cc1ccc2c(c1)N(C(=O)CCc1ccccc1)CCO2` [Example 70, 5-[4-(3-Phenyl-propionyl)-3,4-dihydro-2H-1,4-benzoxazin-6-ylmethylene]-2-thioxo-thiazolidin-4-one] the figure was 31 nM. The value for `Cc1ccc(NC(=O)N2CCOc3ccc(C=C4SC(=S)NC4=O)cc32)cc1` [Example 57, 6-(4-Oxo-2-thioxo-thiazolidin-5-ylidenemethyl)-2,3-dihydro-1,4-benzoxazine-4-carboxylic acid p-tolylamide] was 95 nM; that for `CCCCCCc1ccc(C(=O)N2CCOc3ccc(C=C4SC(=S)NC4=O)cc32)cc1` [Example 27, 5-[4-(4-Hexyl-benzoyl)-3,4-dihydro-2H-1,4-benzoxazin-6-ylmethylene]-2-thioxo-thiazolidin-4-one] was 2020 nM; that for `O=C1NC(=S)SC1=Cc1ccc2c(c1)N(C(=O)Nc1cccc(Cl)c1)CCO2` [Example 80, 6-(4-Oxo-2-thioxo-thiazolidin-5-ylidenemethyl)-2,3-dihydro-benzo[1,4]oxazine-4-carboxylic acid (3-chloro-phenyl)-amide] was 2 nM.

Regarding `O=C1NC(=S)SC1=Cc1ccc2c(c1)N(C(=O)Cc1ccc3ccccc3c1)CCO2` [Example 11, 5-[4-(2-Naphthalen-2-yl-acetyl)-3,4-dihydro-2H-benzo[1,4]oxazine-6-ylmethylene]-2-thioxo-thiazolidin-4-one], the IC50 worked out at 53 nM. Consider `CC1CCCC(C(=O)N2CCOc3ccc(C=C4SC(=S)NC4=O)cc32)C1` (stereo not shown) [Example 85, 5-[4-(3-Methyl-cyclohexanecarbonyl)-3,4-dihydro-2H-benzo[1,4]oxazin-6-ethylene]-2-thioxo-thiazolidin-4-one], for which the IC50 turned out to be 12 nM.

For the compound `CC(C(=O)N1CCOc2ccc(C=C3SC(=S)NC3=O)cc21)c1ccccc1` (stereo not shown) [Example 84, 5-[4-(2-Phenyl-propionyl)-3,4-dihydro-2H-benzo[1,4]oxazin-6-ethylene]-2-thioxo-thiazolidin-4-one], the 50% inhibitory concentration (IC50) stood at 84 nM.

With `O=C1NC(=S)SC1=Cc1ccc2c(c1)N(C(=O)NC1CCCC1)CCO2` [Example 68, 6-(4-Oxo-2-thioxo-thiazolidin-5-ylidenemethyl)-2,3-dihydro-1,4-benzoxazine-4-carboxylic acid cyclopentylamide], the IC50 was 8 nM.

As for `CCc1ccc(C(=O)N2CCOc3ccc(C=C4SC(=S)NC4=O)cc32)cc1` [Example 26, 5-[4-(4-Ethyl-benzoyl)-3,4-dihydro-2H-1,4-benzoxazin-6-ylmethylene]-2-thioxo-thiazolidin-4-one], the IC50 was 545 nM. With `CCCCC(=O)N1CCOc2ccc(C=C3SC(=S)NC3=O)cc21` [Example 96, 5-(4-Pentanoyl-3,4-dihydro-2H-1,4-benzoxazin-6-ylmethylene)-2-thioxo-thiazolidin-4-one], the IC50 amounted to 5 nM. On to `COc1cc(OC)cc(C(=O)N2CCOc3ccc(C=C4SC(=S)NC4=O)cc32)c1` [Example 14], for which the IC50 is 1130 nM. Regarding “2-Thioxo-5-{9-[3-(3-trifluoromethyl-phenyl)-acryloyl]-6,7,8,9-tetrahydro-5-oxa-9-aza-benzocyclohepten-2-ylmethylene}-thiazolidin-4-one [Example 124]”, the IC50 was determined as 4010 nM. The value for “4-[2-(4-Oxo-2-thioxo-thiazolidin-5-ylidenemethyl)-7,8-dihydro-6H-5-oxa-9-aza-benzocycloheptene-9-carbonyl]-benzonitrile [Example 121]” was 2610 nM. With “5-[9-(3,4-Dichloro-benzoyl)-6,7,8,9-tetrahydro-5-oxa-9-aza-benzocyclohepten-2-ylmethylene]-2-thioxo-thiazolidin-4-one [Example 114]”, the IC50 came out at 1380 nM. With `O=C1NC(=S)SC1=Cc1ccc2c(c1)N(C(=O)c1ccno1)CCO2` [Example 49, 5-[4-(Isoxazole-5-carbonyl)-3,4-dihydro-2H-1,4-benzoxazin-6-ylmethylene]-2-thioxo-thiazolidin-4-one] the figure was 245 nM. As to `O=C1NC(=S)SC1=Cc1ccc2c(c1)N(C(=O)Cc1ccc(Cl)c(Cl)c1)CCO2` [Example 15], the IC50 was determined as 7.3 nM. The value for `COc1cccc(NC(=O)N2CCOc3ccc(C=C4SC(=S)NC4=O)cc32)c1` [Example 59, 6-(4-Oxo-2-thioxo-thiazolidin-5-ylidenemethyl)-2,3-dihydro-1,4-benzoxazine-4-carboxylic acid (3-methoxy-phenyl)-amide] was 125 nM. In the case of “5-[9-(3-Phenyl-acryloyl)-6,7,8,9-tetrahydro-5-oxa-9-aza-benzocyclohepten-2-ylmethylene]-2-thioxo-thiazolidin-4-one [Example 115]”, the half-maximal inhibitory concentration (IC50) is 1520 nM. In the case of `O=C1NC(=S)SC1=Cc1ccc2c(c1)N(C(=O)COc1ccc(Cl)cc1)CCO2` [Example 47, 5-{4-[2-(4-Chloro-phenoxy)-acetyl]-3,4-dihydro-2H-1,4-benzoxazin-6-ylmethylene}-2-thioxo-thiazolidin-4-one], the IC50 was 44 nM.

For the compound “2-(4-Oxo-2-thioxo-thiazolidin-5-ylidenemethyl)-7,8-dihydro-6H-5-oxa-9-aza-benzocycloheptene-9-carboxylic acid (3,5-dimethoxy-phenyl)-amide [Example 113]”, the IC50 is 1320 nM. As for `O=C1NC(=S)SC1=Cc1ccc2c(c1)N(C(=O)Nc1ccccc1)CCO2` [Example 58, 6-(4-Oxo-2-thioxo-thiazolidin-5-ylidenemethyl)-2,3-dihydro-1,4-benzoxazine-4-carboxylic acid phenylamide], the IC50 is 32 nM. The value for `CCCCCCCCNC(=O)N1CCOc2ccc(C=C3SC(=S)NC3=O)cc21` [Example 62, 6-(4-Oxo-2-thioxo-thiazolidin-5-ylidenemethyl)-2,3-dihydro-1,4-benzoxazine-4-carboxylic acid octylamide] was 4000 nM; that for “2-[2-(4-Oxo-2-thioxo-thiazolidin-5-ylidenemethyl)-7,8-dihydro-6H-5-oxa-9-aza-benzocycloheptene-9-carbonyl]-anthraquinone [Example 127]” was 4990 nM; that for `CC1COc2ccc(C=C3SC(=S)NC3=O)cc2N1C(=O)c1ccccc1` (stereo not shown) [Example 8, 5-[3-Methyl-4-(-phenyl-methanoyl)-3,4-dihydro-2H-benzo[1,4]oxazine-6-ylmethylene]-2-thioxo-thiazolidin-4-one] was 2180 nM.

“5-[9-(5-tert-Butyl-2-methyl-furan-3-carbonyl)-6,7,8,9-tetrahydro-5-oxa-9-aza-benzocyclohepten-2-ylmethylene]-2-thioxo-thiazolidin-4-one [Example 125]”: the IC50 was 4600 nM. With `CC1CCCCC1C(=O)N1CCOc2ccc(C=C3SC(=S)NC3=O)cc21` (stereo not shown) [Example 91, 5-[4-(2-Methyl-cyclohexanecarbonyl)-3,4-dihydro-2H-benzo[1,4]oxazin-6-ethylene]-2-thioxo-thiazolidin-4-one] the figure was 90 nM; with `O=C1NC(=S)SC1=Cc1ccc2c(c1)N(C(=O)c1ccc(-c3ccccc3)cc1)CCO2` [Example 24, 5-[4-(Biphenyl-4-carbonyl)-3,4-dihydro-2H-1,4-benzoxazin-6-ylmethylene]-2-thioxo-thiazolidin-4-one], 560 nM; with “5-(9-Cyclopentanecarbonyl-6,7,8,9-tetrahydro-5-oxa-9-aza-benzocyclohepten-2-ylmethylene)-2-thioxo-thiazolidin-4-one [Example 111]”, 1000 nM. For `COc1cc(CC(=O)N2CCOc3ccc(C=C4SC(=S)NC4=O)cc32)cc(OC)c1` [Example 73], the IC50 came to 115 nM. The value for `O=C1NC(=S)SC1=Cc1ccc2c(c1)N(C(=O)c1cnc3ccccc3n1)CCO2` [Example 43, 5-[4-(Quinoxaline-2-carbonyl)-3,4-dihydro-2H-1,4-benzoxazin-6-ylmethylene]-2-thioxo-thiazolidin-4-one] was 565 nM; that for `O=C1NC(=S)SC1=Cc1ccc2c(c1)N(C(=O)c1cccs1)CCO2` [Example 42, 5-[4-(Thiophene-2-carbonyl)-3,4-dihydro-2H-1,4-benzoxazin-6-ylmethylene]-2-thioxo-thiazolidin-4-one] was 150 nM; that for `O=C1NC(=S)SC1=Cc1ccc2c(c1)N(C(=O)c1ccc3nonc3c1)CCO2` [Example 61, 5-[4-(Benzofurazan-5-carbonyl)-3,4-dihydro-2H-1,4-benzoxazin-6-ylmethylene]-2-thioxo-thiazolidin-4-one] was 560 nM. With `CCCC(=O)N1CCOc2ccc(C=C3SC(=S)NC3=O)cc21` [Example 94, 5-(4-Butyryl-3,4-dihydro-2H-1,4-benzoxazin-6-ylmethylene)-2-thioxo-thiazolidin-4-one] the figure was 10 nM. With “2-(4-Oxo-2-thioxo-thiazolidin-5-ylidenemethyl)-7,8-dihydro-6H-5-oxa-9-aza-benzocycloheptene-9-carboxylic acid phenyl ester [Example 105]” the figure was 424 nM.

The record behind these values is patent US20040138199A1, “Benzoxazines and derivatives thereof as therapeutic agents” (priority 2002, published 2004).
